Series [1] relates to house flies, Musca domestica. Description: whole plant or invertebrate. The settings on record: read-out: House flies LD50. Type of series: in vivo.
Protocol: In another series of tests, stock 1% concentrated solutions of each of the test compounds of Table I below, and of the commercial related carbamate ester insecticides methomyl, carbofuran and oxamyl, were made in acetone, and such solutions were diluted with acetone to a concentration of 0.001-0.8%. House flies were treated topically on the notum by 1 μl of each of the diluted acetone solutions and percent mortality was counted 24 hours after application.
A short description of series [2]: Mammalian toxicity, oral, Swiss white mice (LD50). The settings on record: mouse, in vivo, propylene glycol carrier. It is filed as in vivo. The procedure:
For mice toxicity, the compound was dissolved in propyleneglycol or corn oil as a carrier and all compounds were tested at the level up to 1,000 mg/kg. All of the above noted compounds tested were lower in toxicity as compared with the parent compounds.
Mammalian toxicity was determined against Swiss white mice.

[3] abbreviates: topical on the notum, 1 μl of 0.001-0.8% acetone solutions, 24 hours, 60° F.

Read-outs that look alike come from different tables or passages of the source.

On to `CSC(C)=NOC(=O)N(C)S(=O)OCCOS(=O)N(C)C(=O)ON=C(C)SC` (stereo not shown) [Example I, N,N'-(1,2-ethanedioxysulfinyl)-bis (S-methyl N-methylcarbamoyloxy-thioacetimidate)], for which the values for the LD50 in series [1] (setting [3]) and in series [2] were 60 mg/kg and 52 mg/kg, respectively. As for `CN(C(=O)Oc1cccc2c1OC(C)(C)C2)S(=O)OCCCOS(=O)N(C)C(=O)Oc1cccc2c1OC(C)(C)C2` (stereo not shown) [Example II, N,N'-(1,3-Propanedioxysulfinyl)-bis (2,3-dihydro-2,2-dimethylbenzofuranyl-7 methylcarbamate)], the LD50 in series [1] (topical, 24 h) worked out at 17 mg/kg; in series [2] it was 92 mg/kg. Regarding `CSC(C)=NOC(=O)N(C)S(=O)OCC1COC(C)(C)O1` (stereo not shown) [Example III, S-methyl N-(2,2-dimethyl-1,3-dioxolane-5-yl-methoxysulfinyl)-N-methylcarbamoyloxythioacetimidate], the values for the LD50 in series [1] (setting [3]) and in series [2] were 7 mg/kg and 84 mg/kg, respectively.

For `CSC(C)=NOC(=O)N(C)[S+]([O-])SCCS[S+]([O-])N(C)C(=O)ON=C(C)SC` (stereo not shown) [Example VIII, N,N'-(1,2-Ethanedithiosulfinyl)-bis (S-methyl N-methylcarbamoyloxy thioacetimidate)], the results for the LD50 in series [1] (setting [3]) and in series [2] were 75 mg/kg and 250 mg/kg, respectively. Regarding `CN(C(=O)Oc1cccc2c1OC(C)(C)C2)[S+]([O-])SCCS[S+]([O-])N(C)C(=O)Oc1cccc2c1OC(C)(C)C2` (stereo not shown) [IX], the LD50 in series [1] (topical, 24 h) is 36 mg/kg; in series [2], 87 mg/kg. `CSC(C)=NOC(=O)N(C)S(=O)OC1COC(c2ccccc2)OC1` (stereo not shown) [X, S-Methyl N-(2-phenyl-1,3-dioxane-5-ylmethoxysulfinyl)N-methylcarbamoyloxythioacetimidate]: in series [2], the median lethal dose (LD50) was found to be 85 mg/kg.

With `C=CCOCC(COS(=O)N(C)C(=O)ON=C(C)SC)OS(=O)N(C)C(=O)ON=C(C)SC` (stereo not shown) [XI, N,N'-(3-Allyloxy-1,2-propanedioxysulfinyl)-bis (S-methyl N-methylcarbamoyloxythioacetimidate)], the LD50 in series [1] (setting [3]) was 40 mg/kg; in series [2], 50 to 80 mg/kg. In the same order, the values of `C=CCOC(COS(=O)N(C)C(=O)ON=C(C)SC)COS(=O)N(C)C(=O)ON=C(C)SC` (stereo not shown) [XII, N,N'-(2-Allyloxy-1,3-propanedioxysulfinyl)-bis (S-methyl N-methylcarbamoyloxythioacetimidate)] are under 50 mg/kg and 88 mg/kg. In the same order, the values of `CSC(C)=NOC(=O)N(C)S(=O)OCC(COCc1ccccc1)OS(=O)N(C)C(=O)ON=C(C)SC` (stereo not shown) [XIII, N,N'-(3-Benzyloxy-1,2-propanedioxysulfinyl)-bis (S-methyl N-methylcarbamoyloxythioacetimidate)] are under 50 mg/kg and 50 to 100 mg/kg. In the same order, the values of `CSC(C)=NOC(=O)N(C)S(=O)OCC(COC(C)C)OS(=O)N(C)C(=O)ON=C(C)SC` (stereo not shown) [XIV, N,N'-(3-Isopropoxy-1,2-propanedioxysulfinyl)-bis (S-methyl N-methylcarbamoyloxythioacetimidate)] are 81.5 mg/kg and 170 mg/kg. In series [2], `C=CCOCC(COS(=O)N(C)C(=O)Oc1cccc(C)c1)OS(=O)N(C)C(=O)Oc1cccc(C)c1` (stereo not shown) [XIX, N,N'-(3-Allyloxy-1,2-propanedioxysulfinyl)-bis (3-methylphenyl methylcarbamate)] returned an LD50 of over 1000 mg/kg. Still for that read-out and setting: under `CSC(C)=NOC(=O)N(C)S(=O)OCC(COS(=O)N(C)C(=O)ON=C(C)SC)OS(=O)N(C)C(=O)ON=C(C)SC` (stereo not shown) [XV, N,N',N",-(1,2,3-Propanetrioxysulfinyl)-tris (S-methyl N-methylcarbamoyloxythioacetimidate)] stands 50 to 100 mg/kg. For `CSC(C)=NOC(=O)N(C)S(=O)OCC12OCC3OC(C)(C)OC3C1OC(C)(C)O2` (stereo not drawn) [XVI, S-Methyl N-(2,3,4,5-di-O-isopropylidene-1-α-O-fructopyranosylsulfinyl)-N-methylcarbamoyloxythioacetimidate], the LD50 in series [1] (setting [3]) stood at 50 mg/kg; in series [2], 500 mg/kg. Regarding `CSC(C)=NOC(=O)N(C)S(=O)OC1C2OC(C)(C)OC2COC12COC(C)(C)O2` (stereo not shown) [XVII, S-Methyl N-(1,2,4,5-di-O-isopropylidene-3-O-fructopyranosylsulfinyl)-N-methylcarbamoyloxythioacetimidate], the LD50 in series [1] (setting [3]) was 115 mg/kg; in series [2], 1000 mg/kg. In turn, `Cc1cccc(OC(=O)N(C)S(=O)OCC2COC(C)(C)O2)c1` (stereo not shown) [XX, 3-Methylphenyl N-(2,2-dimethyl-1,3-dioxolane-5-ylmethoxysulfinyl)-N-methylcarbamate] displayed an LD50 in series [2] of over 1000 mg/kg. `C=CCOC(COS(=O)N(C)C(=O)Oc1cccc(C)c1)COS(=O)N(C)C(=O)Oc1cccc(C)c1` (stereo not shown) [XXI, N,N'-(2-Allyloxy-1,3-propanedioxysulfinyl)-bis (3-methylphenyl methylcarbamate)] returned an LD50 in series [2] of over 1000 mg/kg. In turn, `Cc1cccc(OC(=O)N(C)S(=O)OCC(COCc2ccccc2)OS(=O)N(C)C(=O)Oc2cccc(C)c2)c1` (stereo not shown) [XXII, N,N'-(3-Benzyloxy-1,2-propanedioxysulfinyl)-bis (3-methylphenyl methylcarbamate)] registered an LD50 in series [2] of over 1000 mg/kg. Take `Cc1cccc(OC(=O)N(C)S(=O)OCC(COC(C)C)OS(=O)N(C)C(=O)Oc2cccc(C)c2)c1` (stereo not shown) [XXIII, N,N'-(3-Isopropoxy-1,2-propanedioxysulfinyl)-bis (3-methyl-phenyl methylcarbamate)]: the median lethal dose (LD50) in series [2] is over 1000 mg/kg. As to `Cc1cccc(OC(=O)N(C)S(=O)OCC23OCC4OC(C)(C)OC4C2OC(C)(C)O3)c1` (stereo not drawn) [XXIV, 3-Methylphenyl N-(2,3,4,5-di-O-isopropylidene-1-α-O-fructopyranosylsulfinyl)-N-methylcarbamate], the LD50 in series [2] is over 1000 mg/kg. Turning to `C=CCOCC(COS(=O)N(C)C(=O)ON=C(SC)C(=O)N(C)C)OS(=O)N(C)C(=O)ON=C(SC)C(=O)N(C)C` (stereo not shown) [XXIX, N,N'-(3-Allyloxy-1,2-propanedioxysulfinyl)-bis[S-methyl N-methylcarbamoyloxy-2-(N',N'-dimethylamino)-2-oxoethanimidothioate]], the results for the LD50 in series [1] (setting [3]) and in series [2] were 215 mg/kg and 12.5 to 25 mg/kg, respectively.

In series [2], `Cc1cccc(OC(=O)N(C)S(=O)OC2C3OC(C)(C)OC3COC23COC(C)(C)O3)c1` (stereo not shown) [XXV, 3-Methylphenyl N-(1,2,4,5-di-O-isopropylidene-3-O-fructopyranosylsulfinyl)-N-methylcarbamate] gave an LD50 of over 1000 mg/kg.

In turn, `Cc1cccc(OC(=O)N(C)S(=O)OC2C(C3COC(C)(C)O3)OC3OC(C)(C)OC32)c1` (stereo not shown) [XXVI, 3-Methylphenyl N-(1,2,5,6-di-O-isopropylidene-3-O-glucofuranosylsulfinyl)-N-methylcarbamate] yielded a median lethal dose (LD50) in series [2] of over 1000 mg/kg. `CSC(=NOC(=O)N(C)S(=O)OCC(COCc1ccccc1)OS(=O)N(C)C(=O)ON=C(SC)C(=O)N(C)C)C(=O)N(C)C` (stereo not shown) [XXXI, N,N'-(3-Benzyloxy-1,2-propanedioxysulfinyl)-bis-[S-methylcarbamoyloxy-2-(N',N'-dimethylamino)-2-oxoethanimidothioate]] showed an LD50 in series [2] of 12.5 to 25 mg/kg. `CSC(=NOC(=O)N(C)S(=O)OCC(COC(C)C)OS(=O)N(C)C(=O)ON=C(SC)C(=O)N(C)C)C(=O)N(C)C` (stereo not shown) [XXXII, N,N'-(3-Isopropoxy-1,2-propanedioxysulfinyl)-bis[S-methyl N-methylcarbamoyloxy-2-(N',N'-dimethylamino)-2-oxoethanimidothioate]] yielded an LD50 in series [2] of 16 mg/kg. On the same count and under the same terms, the result for `CC(C)OCC(COS(=O)N(C)C(=O)Oc1cccc2ccccc12)OS(=O)N(C)C(=O)Oc1cccc2ccccc12` (stereo not shown) [XXXIX, N,N'-(3-Isopropoxy-1,2-propanedioxysulfinyl)-bis(1-naphthyl methylcarbamate)] reads over 1000 mg/kg; that for `C=CCOCC(COS(=O)N(C)C(=O)Oc1cccc2ccccc12)OS(=O)N(C)C(=O)Oc1cccc2ccccc12` (stereo not shown) [XXXVI, N,N'-(3-Allyloxy-1,2-propanedioxysulfinyl)-bis(1-naphthyl methylcarbamate)], over 1000 mg/kg; that for `C=CCOC(COS(=O)N(C)C(=O)Oc1cccc2ccccc12)COS(=O)N(C)C(=O)Oc1cccc2ccccc12` (stereo not shown) [XXXVII, N,N'-(2-Allyloxy-1,3-propanedioxysulfinyl)-bis(1-naphthyl methylcarbamate)], over 1000 mg/kg. Compound `CN(C(=O)Oc1cccc2ccccc12)S(=O)OCC(COCc1ccccc1)OS(=O)N(C)C(=O)Oc1cccc2ccccc12` (stereo not shown) [XXXVIII, N,N'-(3-Benzyloxy-1,2-propanedioxysulfinyl)-bis(1-naphthyl methylcarbamate)] registered an LD50 in series [2] of over 1000 mg/kg. Regarding `CN(C(=O)Oc1cccc2ccccc12)S(=O)OCC(COS(=O)N(C)C(=O)Oc1cccc2ccccc12)OS(=O)N(C)C(=O)Oc1cccc2ccccc12` (stereo not shown) [XXXX, N,N',N"-(1,2,3-Propanetrioxysulfinyl)-tris-(1-naphthyl methylcarbamate)], the median lethal dose (LD50) in series [2] is over 1000 mg/kg. As to `CN(C(=O)Oc1cccc2ccccc12)S(=O)OCC12OCC3OC(C)(C)OC3C1OC(C)(C)O2` (stereo not drawn) [XXXXI, 1-Naphthyl N-(2,3,4,5-di-O-isopropylidene-1-α-O-fructopyranosylsulfinyl)-N-methylcarbamate], the LD50 in series [2] was over 1000 mg/kg. On the same count and under the same terms, under `CN(C(=O)Oc1cccc2ccccc12)S(=O)OC1C2OC(C)(C)OC2COC12COC(C)(C)O2` (stereo not drawn) [XXXXII, 1-Naphthyl N-(1,2,4,5-di-O-isopropylidene-3-α-O-fructopyranosylsulfinyl)-N-methylcarbamate] stands over 1000 mg/kg; under `CC(C)Oc1ccccc1OC(=O)N(C)S(=O)OCC(COS(=O)N(C)C(=O)Oc1ccccc1OC(C)C)OS(=O)N(C)C(=O)Oc1ccccc1OC(C)C` (stereo not shown) [XXXXIII, N,N',N"(1,2,3-Propanetrioxysulfinyl)-tris-(2-isopropoxyphenyl methylcarbamate)], over 1000 mg/kg; under `CC(C)Oc1ccccc1OC(=O)N(C)S(=O)OCC12OCC3OC(C)(C)OC3C1OC(C)(C)O2` (stereo not drawn) [XXXXIV, 2-Isopropoxyphenyl N-(2,3,4,5-di-O-isopropylidene-1-α-O-fructopyranosylsulfinyl)-N-methylcarbamate], over 1000 mg/kg. For the compound `CNC(=O)ON=C(C)SC` [methomyl, reference compound], the LD50 in series [1] (setting [3]) worked out at 3.7 mg/kg.

These data come from patent publication US4315026A, “Alkylpolyoxysulfinyl and alkylpolythiosulfinyl derivatives of carbamate esters” (priority 1980, dated 1982).
